The values that follow come from US11078194B2, “Salt form and crystal form serving as FGFR and VEGFR inhibitor compounds, and preparation method therefor” (HARBIN ZHENBAO PHARMACEUTICAL CO., LTD., priority 2017, dated 2021).

The nature of this data set: Solubility test of compounds of formula (I)-(IV) in 4 vehicles (water, SGF, FaSSIF, FeSSIF), HPLC. Format: physicochemical. To be noted: for solubility at 4 h / solubility at 24 h: thermodynamic from solid; for solubility at 4 h: 4 hours stirring, read-out: Solubility (μg/mL)_4 hours; for solubility at 24 h: 24 hours stirring, read-out: Solubility (μg/mL)_24 hours. On the procedure: About 5 mg of the compound of formula (I) was weighed accurately, and placed in a sample bottle. 10 mL of acetonitrile was added. The mixture was sonicated for 5 minutes, cooled to room temperature, and well mixed. Two control sample solutions were prepared in parallel, and labeled as STD-1 and STD-2, respectively.
The control sample solution STD-1 was serially diluted 1, 5, 10, 100 and 1000 times and labeled as linear solutions L1, L2, L3, L4 and L5.
The solubility of the compound of formula (I) and its salt in 4 vehicles with different pH were tested. About 10 mg of the compounds of formula (I)-(IV) were weighed respectively, then 5.0 mL of different vehicles (water, SGF, FaSSIF, FeSSIF) were added thereto, respectively, and well mixed to obtain suspensions. Magnetic stir bars were added into the suspensions, and the suspensions were placed on a magnetic stirrer for stirring. After stirring for 2 hours, 4 hours, and 24 hours, the samples were collected and centrifuged. The residual solid samples in the lower layer were detected by XRPD. The concentrations of the samples in the upper layer were determined by HPLC, and the pH value of the samples were also detected.
(§1) FaSSIF: (1) 0.042 g of sodium hydroxide, 0.3438 g of sodium dihydrogen phosphate and 0.6186 g of sodium chloride were weighed, and 90 mL of purified water was added and well mixed. The pH value of the obtained solution were adjusted to 6.5 with 1 N hydrochloric acid or 1 N sodium hydroxide, and the solution were diluted with purified water to a final volume of 100 mL. (2) 50 mL of the above buffer solution was taken, followed by addition of 0.224 g of commercially available FaSSIF/FeSSIF/FaSSGF powder (Biorelevant.com). The buffer solution was stirred until dissolved, and diluted with purified water to a final volume of 100 mL. The buffer solution was placed at room temperature.
as §1, with “FeSSIF:” for “FaSSIF:”, “0.404” for “0.042”, “0.865” for “0.3438”, “glacial acetic acid, 1.1874” for “sodium dihydrogen phosphate and 0.6186”, “5.0” for “6.5”, “1.12” for “0.224”
FaSSGF (SGF): (1) 0.2 g of sodium chloride was added to 90 mL of purified water and mixed well. The pH value thereof was adjusted to 1.8 with 1 N hydrochloric acid and the solution diluted with purified water to a final volume of 100 mL. The obtained solution was allowed to stand at room temperature.

The mark [1] stands for this setting: FaSSIF, pH 6.5, fassif, vehicle FaSSIF.
Where [2] appears, read: FeSSIF, pH 5, fessif, vehicle FeSSIF.
The mark [3] stands for this setting: SGF (FaSSGF), pH 1.8, simulated gastric fluid, vehicle SGF.
Where [4] appears, read: pH of sample in FaSSIF (vehicle pH 6.62).
Setting [5] is: pH of sample in FeSSIF (vehicle pH 4.59).
Where [6] appears, read: pH of sample in H2O (vehicle pH 8.23).
The mark [7] stands for this setting: pH of sample in SGF (vehicle pH 1.57).
Where [8] appears, read: water, pH 8.23, water, vehicle H2O.

Read-outs that look alike come from different tables or passages of the source.

On to `C[C@@H](Oc1ccc2[nH]nc(/C=C(\F)c3ccc(CNC4CCOCC4)nc3)c2c1)c1c(Cl)cncc1Cl.O=C(O)CC(O)(CC(=O)O)C(=O)O` [compound of formula (III)], for which the solubility at 4 h is 910 µg/mL under setting [1], 2370 µg/mL under setting [2], 2420 µg/mL under setting [3] and 99.5 µg/mL under setting [8]. In addition, the solubility at 24 h is 942 µg/mL under setting [1], 2230 µg/mL under setting [2], 16.8 µg/mL under setting [3] and 184 µg/mL under setting [8]. The “pH (4 hours)” value is 6.43 under setting [4], 4.96 under setting [5], 5.60 under setting [6] and 2.09 under setting [7]. The “pH (24 hours)” value reads like this: under setting [4], 6.33; under setting [5], 4.97; under setting [6], 5.47; under setting [7], 2.08.

For the compound `C[C@@H](Oc1ccc2[nH]nc(/C=C(\F)c3ccc(CNC4CCOCC4)nc3)c2c1)c1c(Cl)cncc1Cl.O=C(O)C[C@H](O)C(=O)O` [compound of formula (IV)], the solubility at 4 h is 1130 µg/mL under setting [1], 2410 µg/mL under setting [2], 2470 µg/mL under setting [3] and 7.4 µg/mL under setting [8]. For the same compound, the solubility at 24 h is, setting by setting: under setting [1], 824 µg/mL; under setting [2], 2280 µg/mL; under setting [3], 43.3 µg/mL; under setting [8], 19.3 µg/mL. The “pH (4 hours)” value reads like this: under setting [4], 6.26; under setting [5], 4.95; under setting [6], 6.93; under setting [7], 2.09. The “pH (24 hours)” value reads like this: under setting [4], 6.27; under setting [5], 4.95; under setting [6], 6.46; under setting [7], 2.09.
